{
  "source": "patent US12465613B2",
  "about": "“Pharmaceutical composition for use in the prophylactic and/or therapeutic treatment of L-DOPA-induced dyskinesia” (UNIVERSIDADE DE SANTIAGO DE COMPOSTELA, priority 2019, dated 2025)",
  "assay_type_in_all_cases": "in vivo, rats of the Sprague-Dawley strain",
  "key": {"ROCK": {"test_system": "ROCK", "test": "ROCK expression and activity in striatum and substantia nigra of dyskinetic animals (Western blot, real-time PCR; Example 1)"}, "RhoA": {"test_system": "RhoA", "test": "RhoA expression in striatum and substantia nigra of dyskinetic animals (Western blot, real-time PCR; Example 1)"}, "[1]": {"test_system": "rats injected with 6-OHDA, dyskinesias induced by L-DOPA", "test": "Abnormal involuntary movements (AIMs) when fasudil is co-administered from before and during chronic L-DOPA treatment (Example 2)"}, "[2]": {"test_system": "rats with unilateral lesion with 6-OHDA", "test": "Rotational behavior induced by L-DOPA (Example 3)", "details": "different doses of fasudil (10, 30, 40 mg/kg)"}, "[3]": {"test_system": "rats with unilateral lesion with 6-OHDA, established dyskinesias induced by L-DOPA", "test": "AIMs in animals with already established dyskinesias (L-DOPA 3 weeks, then L-DOPA and fasudil; Example 4)"}, "[4]": {"details": "L-DOPA 6 mg/kg and 12 mg/kg, normalized to 6-OHDA animals treated with saline, p<0.05"}, "[5]": {"details": "daily L-DOPA 6 or 12 mg/kg, 3-4 weeks, increase greater with the higher dose"}, "[6]": {"details": "fasudil 10 mg/kg/day i.p., L-DOPA 6 mg/kg, 3 weeks, relative to L-DOPA only"}, "[7]": {"details": "fasudil 30 mg/kg i.p., chronic L-DOPA"}},
  "note": "“Also recorded” adds a separate entry of the source.",
  "data": [
    {"smiles": "N[C@@H](Cc1ccc(O)c(O)c1)C(=O)O", "note": "[L-DOPA]", "values": [
      {"measurement": "ROCK activity in the substantia nigra", "setting": "ROCK; L-DOPA 6 mg/kg and 12 mg/kg, normalized to 6-OHDA animals treated with saline", "value": "significant increase"},
      {"measurement": "ROCK protein expression in the substantia nigra", "setting": "ROCK; [4]", "value": "significant increase"},
      {"measurement": "ROCK protein expression in the striatum", "setting": "ROCK; L-DOPA 6 and 12 mg/kg", "value": "only significant with the high dose"},
      {"measurement": "levels of the ROCK protein in dyskinetic animals", "setting": "ROCK; [5]", "value": "significant increase"},
      {"measurement": "RhoA protein expression in the substantia nigra", "setting": "RhoA; [4]", "value": "significant increase"},
      {"measurement": "RhoA protein expression in the striatum", "setting": "RhoA; L-DOPA 6 and 12 mg/kg", "value": "only significant with the high dose"},
      {"measurement": "levels of the RhoA protein in dyskinetic animals", "setting": "RhoA; [5]", "value": "significant increase"}
    ]},
    {"smiles": "O=S(=O)(c1cccc2cnccc12)N1CCCNCC1", "note": "[fasudil]", "values": [
      {"measurement": "abnormal involuntary movements (AIMs), total score and separate components (extremity, axial, orolingual)", "setting": "[1]; FIG. 2, fasudil 10 mg/kg and 30-40 mg, chronic L-DOPA 23 and 32 days, p<0.05", "value": "statistically significant reduction"},
      {"measurement": "reduction in dyskinesia in conditions of severe dyskinesia", "setting": "[1]; L-DOPA dose increased to 24 mg/kg at the end of the treatment, fasudil dose not stated", "value": "approximately 50%"},
      {"measurement": "axial reduction in dyskinesias", "setting": "[1]; [6]", "value": "~35", "unit": "%"},
      {"measurement": "orolingual reduction in dyskinesias", "setting": "[1]; [6]", "value": "~30", "unit": "%"},
      {"measurement": "reduction in dyskinesias in the extremities", "setting": "[1]; fasudil 10 mg/kg/day i.p., from 5 days before and 30 min before each L-DOPA 6 mg/kg, 3 weeks, relative to L-DOPA only", "value": "~25", "unit": "%"},
      {"measurement": "axial reduction in dyskinesias", "setting": "[1]; [7]", "value": 60, "unit": "%"},
      {"measurement": "extremity reduction in dyskinesias", "setting": "[1]; [7]", "value": 60, "unit": "%"},
      {"measurement": "orolingual reduction in dyskinesias", "setting": "[1]; [7]", "value": 70, "unit": "%"},
      {"measurement": "reduction in dyskinesia", "setting": "[1]; fasudil 40 mg/kg i.p., chronic L-DOPA", "value": 70, "unit": "%"},
      {"measurement": "rotations induced by L-DOPA (rotational behavior)", "setting": "[2]", "value": "unaffected; also recorded: no differences were observed"},
      {"measurement": "effect on established dyskinetic movements", "setting": "[3]; FIG. 4B, fasudil 30 and 40 mg/kg, even with L-DOPA 24 mg/kg, p<0.05", "value": "significant reduction"},
      {"measurement": "reduction in established dyskinesias, severe dyskinesia", "setting": "[3]; L-DOPA increased to 24 mg/kg, maintained up to the end of the treatment", "value": "approximately 50%"},
      {"measurement": "effect on established dyskinetic movements", "setting": "[3]; fasudil 10 mg/kg/day, up to 7 days of treatment, after 3 weeks of L-DOPA", "value": "did not have any effect; also recorded: no improvement"},
      {"measurement": "day of treatment from which the reduction in established dyskinesias was seen", "setting": "[3]; fasudil 40 mg/kg/day", "value": "third"},
      {"measurement": "reduction in established dyskinesias", "setting": "[3]; fasudil 40 mg/kg/day, after 3 weeks of L-DOPA", "value": "about 45%"},
      {"measurement": "dyskinesias reduced to (already dyskinetic animals)", "setting": "[3]; fasudil 40 mg/kg, animals treated with L-DOPA for 3-4 weeks, summary statement", "value": "~50", "unit": "%"}
    ]}
  ]
}
